Earlier results, collected in patent publication US20110021626A1, “ENCAPSULATION OF VITAMIN C INTO WATER SOLUBLE DENDRIMERS” (CENTRE NATIONAL DE LA RECHERCHE SCIENTIFIQUE - CNRS, priority 2008, published 2011).

Details: at 25° C. in water

pKa: 4,11
Structure (SMILES): O=C1O[C@H]([C@@H](O)CO)C(O)=C1O [ascorbic acid]
